Test results: publication PMC9114674, “Synthesis of New 5′-Norcarbocyclic Aza/Deaza Purine Fleximers - Noncompetitive Inhibitors of E.coli Purine Nucleoside Phosphorylase” (Frontiers in Chemistry, 2022)

T1: E. coli purine nucleoside phosphorylase (PNP) (Escherichia coli, UniProt P0ABP8)
T1 construct: gene deoD
T1 sequence (P0ABP8 2-239): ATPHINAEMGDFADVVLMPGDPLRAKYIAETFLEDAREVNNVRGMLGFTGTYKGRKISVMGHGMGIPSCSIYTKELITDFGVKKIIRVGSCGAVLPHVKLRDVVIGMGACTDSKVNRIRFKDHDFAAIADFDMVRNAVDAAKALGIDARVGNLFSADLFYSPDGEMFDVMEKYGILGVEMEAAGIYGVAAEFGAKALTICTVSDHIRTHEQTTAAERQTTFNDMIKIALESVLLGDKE

B1: E. coli purine nucleoside phosphorylase (PNP) (Escherichia coli K-12) (protein)
chain: T1 sequence (P0ABP8 2-239)

Key:
[1] = molecular target: T1, E. coli purine nucleoside phosphorylase (PNP); test: HPLC inosine phosphorolysis assay with recombinant enzyme, non-competitive inhibition kinetics; type: biochemical
purified protein = substrate: OC[C@H]1O[C@@H](n2cnc3c(O)ncnc32)[C@H](O)[C@@H]1O; test: purified protein; type: biochemical, Escherichia coli; settings: phosphate active site

Molecule	Ki [1]	Km (purified protein)	kcat (purified protein)
Nc1ncncc1-c1cnn([C@@H]2C[C@H](O)[C@@H](O)[C@H]2O)c1 [compound 3, 1-(2′,3′,4′-Trihydroxycyclopent-1′-yl)-4-(4-aminopyrimidin-3-yl)pyrazole]	24 ± 3 mM	–	–
Nc1ncccc1-c1cnn([C@@H]2C[C@H](O)[C@@H](O)[C@H]2O)c1 [compound 2, 1-(2′,3′,4′-Trihydroxycyclopent-1′-yl)-4-(2-aminopyridin-3-yl)pyrazole]	14 ± 1 mM	–	–
Nc1ccncc1-c1cnn([C@@H]2C[C@H](O)[C@@H](O)[C@H]2O)c1 [compound 1, 1-(2′,3′,4′-Trihydroxycyclopent-1′-yl)-4-(4-aminopyridin-3-yl)pyrazole]	17 ± 4 mM	–	–
B1	–	130 ± 10 µM	900 ± 60 s⁻¹
